Test results as given in paper PMC6332226, “Potent PPARγ Ligands from Swietenia macrophylla Are Capable of Stimulating Glucose Uptake in Muscle Cells” (Molecules, 2015).

How the values were obtained:
[1] = test system: C2C12 muscle cells; assay: GLUT4 translocation assay (immunofluorescence); format: cell-based; conditions: for GLUT4 translocation to the plasma membrane / time at which GLUT4 translocation occurs after treatment: 2 µM compound
Description: (§1) Figure 6 The compounds affected the distribution of GLUT4 proteins and facilitated glucose uptake in the C2C12 muscle cells. The GLUT4 proteins were visualized via the green fluorescent FITC labeled-GLUT4 antibody. […] The white arrows show the presence of GLUT4 near the plasma membrane, and the red arrows show the presence of GLUT4 within the nucleus. The figures denote the time lapse (m = minutes) after treatment. The images were captured using a LSM710 laser scanning microscope with a 63X oil immersion objective (Carl Zeiss, Oberkochen, Germany); (F) The amount of 2-NBDG uptake in the cells after treatment 6OA, DS and Sw or insulin was quantified at OD 510 nm. The fold increase was plotted against the treated concentration of natural compounds. The symbol * denotes a significant difference at p < 0.05 compared with DMSO (Tukey’s test, n = 6), DMSO = 1.
The differentiated C2C12 muscle cells cultured in 8-well chamber slides were treated with DMSO, insulin and S. macrophylla compounds for 15, 30, 60 and 120 min in DMEM low glucose + 0.1% (w/v) BSA. The cells were then fixed with 4% (v/v) paraformaldehyde, washed with MAXwash^TM washing medium (Active Motif, Tokyo, Japan) and blocked with Maxblock^TM blocking medium (Active Motif). The cells were incubated with the GLUT4 antibody for 16 h at 4 °C and then with the fluorescent conjugated secondary antibody for 2 h at room temperature. 100 µL of Fluoroshield^TM with DAPI (Sigma-Aldrich, St. Louis, MO, USA) was added to each well and mounted with a cover slip for imaging.

[2] = test system: 3T3-L1 preadipocyte cells; assay: Adipocyte differentiation assay, Oil Red O staining of lipid droplets; format: cell-based; conditions: for induction of 3T3-L1 differentiation into lipid-producing adipocytes: 2–50 µM, lower level than insulin and rosiglitazone; for ORO stained lipid droplets, fold higher than vehicle treated cells: compounds 2–50 µM; for first appearance of lipid droplets after treatment: 3T3-L1 cells
Protocol: Figure 4 The semi-quantification of lipid droplets produced by differentiated 3T3-L1 cells at day 7 after the compound treatment. The quantification was performed by dissolving the cells in isopropanol and measuring the absorbance read out at 510 nm. […] The symbol ** denotes a significant difference at p < 0.01 compared with DMSO (Tukey’s test, n = 3).
3T3-L1 and C2C12 cells were purchased from the American Type Culture Collection (Manassas, VA, USA). The 3T3-L1 and C2C12 cells were maintained in DMEM medium supplemented with 10% (v/v) bovine serum and 10% (v/v) fetal bovine serum (FBS), respectively. The differentiation of adipocytes was initiated two days after the cells reached confluence by adding 0.5 mM isobutyl methylxanthine (IBMX), 1 µM dexamethasone and 1 µg/mL insulin to DMEM containing 10% (v/v) FBS. Two days later, the differentiation medium was replaced by DMEM containing 10% (v/v) FBS and 1 µg/mL insulin. These differentiated cells were stabilized in DMEM + 10% (v/v) FBS for another 2 days. C2C12 myocytes were induced to differentiate by substituting 10% (v/v) FBS with 10% (v/v) horse serum once the cells reached confluence. Fresh differentiation medium was replaced every two days until the myotube formation was complete.
Adipocyte differentiation is one of the major cellular responses upon PPARγ activation. 3T3-L1 pre-adipocyte cells were seeded on 24-well plates at 5 × 10^4 cells per well. Two days after reaching confluence, the cells were triggered to differentiate by insulin (positive control), DMSO (negative control), TZD, and the three natural compounds isolated from S. macrophylla (6OA, DS and Sw). […] For visualization, lipid droplets were stained by Oil Red O (ORO). The trapped ORO between the lipid droplets was then dissolved in absolute isopropanol, and the absorbance of the dissolved ORO was semi-quantitatively measured by a SpectraMax M5 multi-detection microplate reader (Molecular Devices) at a wavelength of 510 nm.

[3] = test system: differentiated 3T3-L1 adipocyte cells; assay: mRNA expression of PPARγ and adipogenic markers by quantitative RT-PCR; format: cell-based; conditions: 2 µM compound, 7 days; for PPARγ mRNA expression, fold elevation: vs DMSO; for expression levels of adipogenic markers (adiponectin, adipsin, PPARγ, GLUT4): 50 nM rosiglitazone or 1 μM insulin, normalized to β-actin, DMSO = 1
Protocol: Figure 5 The analysis of PPARγ and selected adipogenic gene expression in differentiated 3T3-L1 adipocyte cells with quantitative RT-PCR. […] The expression values were normalized against a housekeeping gene, β-actin.
For the gene expression study, mature 3T3-L1 adipocytes were lysed 7 days after the induction of cellular differentiation. The total RNA samples were prepared according to the manufacturer's protocol (TRIzol reagent, Invitrogen Life Technologies, Carlsbad, CA, USA). The mRNA expression of the target genes was measured by quantitative RT-PCR with an iCycler iQ5 PCR Thermal Cycler (Bio-Rad Laboratories, Hercules, CA, USA). The primers for the adipogenesis-related genes, adiponectin, adipsin, GLUT4 and PPARγ, were designed using Primer 3 software (Table 1). Real-time PCR was performed according to the manufacturer’s protocol (SYBR-Green One-Step Quantitative RT-PCR). Briefly, 5 ng of total RNA, 50 nM of each primer, iScript RT enzyme and the universal SYBR Green reaction mix (Bio-Rad Laboratories) were mixed well in a final volume of 30 µL. All the PCR reactions were performed as follows: 1 cycle of 50 °C for 2 min and 95 °C for 10 min, followed by 40 cycles of 95 °C for 15 s and 60 °C for 1 min. The PCR products were subjected to a melting-curve analysis. The expression levels were normalized against a housekeeping gene, β-actin, and the expression levels of the genes in the DMSO treated cells were designated as 1.

[4] = test system: C2C12 muscle cells; assay: Glucose uptake assay with 2-NBDG; format: cell-based; conditions: 2 µM compound, 60 min treatment
Description: as §1
C2C12 cells were grown and differentiated in 96-well culture plates. The differentiated C2C12 muscle cells were treated with DMSO, insulin, and S. macrophylla compounds for 60 min in DMEM + 0.1% (w/v) BSA. After washing three times with Krebs-Ringer Phosphate H (KRPH) buffer + 0.1% (w/v) BSA, the cells were incubated with 100 μM 2-NBDG for 15 min. After washing three times with KRPH buffer + 0.1% (w/v) BSA, the uptake of 2-NBDG was observed under a fluorescence microscope, and the fluorescence of 2-NBDG was measured with a microplate reader (Perkin Elmer, Waltham, MA, USA).

[5] = molecular target: T1, recombinant PPARγ (Homo sapiens, UniProt P37231); assay: ELISA PPARγ-binding assay (ligand-dependent binding of PPARγ to p300 coactivator); conditions: highest binding; p300-coated plate, absorbance 405 nm
T1 construct: amino acid positions 107–477 for PPARγ; His tag (pET28a) (N); made in house; host or cells: E. coli BL21
T1 sequence (P37231 107-477 isoform P37231-2): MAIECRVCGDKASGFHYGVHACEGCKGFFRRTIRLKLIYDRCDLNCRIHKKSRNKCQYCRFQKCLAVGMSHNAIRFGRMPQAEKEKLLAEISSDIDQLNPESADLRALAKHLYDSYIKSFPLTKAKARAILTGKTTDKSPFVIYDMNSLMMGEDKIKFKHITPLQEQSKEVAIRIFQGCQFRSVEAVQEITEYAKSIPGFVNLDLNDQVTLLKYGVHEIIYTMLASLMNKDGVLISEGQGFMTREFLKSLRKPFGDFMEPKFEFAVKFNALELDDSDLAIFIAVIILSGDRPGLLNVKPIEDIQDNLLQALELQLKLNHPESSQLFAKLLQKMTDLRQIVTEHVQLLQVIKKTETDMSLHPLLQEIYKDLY
T1 sequence (Q09472 39-221 partner limits assumed): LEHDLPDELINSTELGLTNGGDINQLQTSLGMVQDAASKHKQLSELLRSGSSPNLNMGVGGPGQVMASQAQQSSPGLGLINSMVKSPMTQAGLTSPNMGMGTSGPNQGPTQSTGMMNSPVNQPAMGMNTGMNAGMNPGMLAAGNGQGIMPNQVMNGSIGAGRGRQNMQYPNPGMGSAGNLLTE
Protocol: The truncated p300 recombinant protein included a specific binding domain, LXXLL, for protein-protein interactions between p300 and PPARγ.
The ELISA binding assay used is based on the principle of binding between the ligand-dependent PPARγ and its coactivator. Briefly, 5 µg of purified recombinant p300, a PPARγ coactivator, was used to coat a 96-well microtitre plate in the presence of coating buffer (150 mM Na2CO3, 350 mM NaHCO3, pH 9.6). The plate was incubated for 2 h at room temperature. Nonspecific binding sites were blocked with 100 µL of blocking buffer [2% (w/v) BSA in 10 mM PBS, pH 7.2] for 2 h at room temperature. The recombinant PPARγ cell lysate was prepared by using the freeze/thaw cell lysis method [37]. […] These mixtures were added to the p300-coated 96-well plate, which was then incubated for 1 h at 37 °C. The presence of the PPARγ ligand led to the formation of a p300-PPARγ-ligand complex. The detection of this complex was performed through the addition of 100 µL of anti-PPARγ antibody (1:1000 dilutions) and incubation for 1 h at room temperature. Subsequently, 100 µL of the AP conjugated donkey anti-goat antibody (1:1000 dilutions) was added into each well, and the plates were at room temperature for 1 h. The pNPP substrate solution (100 µL) was added to each well and incubated for 1 h at room temperature in the dark. Finally, 2.0 N sulphuric acid (50 µL per well) was added to each well to stop the enzymatic reaction. The absorbance at 405 nm was detected with a microplate reader (SpectraMax M5, Molecular Devices, Sunnyvale, CA, USA). Throughout the procedures, the microtitre plate was washed three times with washing buffer [10 mM PBS, pH 7.2, containing 0.1% (v/v) Tween 20] after each incubation step.

[6] = test system: diabetic rats; conditions: diabetic rats ref 5; cited from earlier work

fold increase of binding between PPARγ and coactivator compared to vehicle (DMSO) [5] | Compound | GLUT4 translocation to the plasma membrane [1] | time at which GLUT4 translocation occurs after treatment [1] | induction of 3T3-L1 differentiation into lipid-producing adipocytes [2] | ORO stained lipid droplets, fold higher than vehicle treated cells ([2]; day 7) | PPARγ mRNA expression, fold elevation [3] | expression levels of adipogenic markers (adiponectin, adipsin, PPARγ, GLUT4) [3] | glucose (2-NBDG) uptake [4] | first appearance of lipid droplets after treatment [2] | elevated cholesterol and triglyceride levels [6] | time at which GLUT4 translocation occurs after stimulation ([1]; 200 nM insulin) | ORO stained lipid droplets, fold higher than vehicle (DMSO) ([2]; 1 µM insulin, day 7)
50 fold | COC(=O)C(OC(C)=O)C1C(C)(C)C(O)C2CC3=C4CC(=O)O[C@@H](c5ccoc5)[C@@]4(C)CCC3[C@@]1(C)C2=O (stereo partly shown) [6OA, 6-O-acetylswietenolide] | increase in GLUT4 translocation | 15 min | induce 3T3-L1 cells differentiation into lipid-producing adipocytes | 1.3–1.6 fold | five- to six | increase | significant increase |  |  |  | 
38 fold | COC(=O)C(OC(C)=O)C1C(C)(C)C(OC(C)=O)C2CC3=C4CC(=O)O[C@@H](c5ccoc5)[C@@]4(C)CCC3[C@@]1(C)C2=O (stereo partly shown) [DS, diacetyl swietenolide] | increase in GLUT4 translocation | ≥ 60 min | induce 3T3-L1 cells differentiation into lipid-producing adipocytes | 1.3–1.6 fold | five- to six | increase | significant increase |  |  |  | 
 | CN(CCOc1ccc(CC2SC(=O)NC2=O)cc1)c1ccccn1 (stereo not shown) [Rosiglitazone, rosiglitazone, reference compound] |  |  |  |  |  | increase |  | 5 days |  |  | 
36 fold | C/C=C(\C)C(=O)OC1C2C=C3C(CC[C@@]4(C)C3CC(=O)O[C@H]4c3ccoc3)[C@@](C)(C2=O)C(C(O)C(=O)OC)C1(C)C (stereo partly shown) [Sw, swietenine] | increase in GLUT4 translocation | 15 min | induce 3T3-L1 cells differentiation into lipid-producing adipocytes | 1.3–1.6 fold | five- to six | increase | significant increase |  | attenuate |  | 
 | Insulin: known adipocyte differentiation inducer, positive control [reference compound] |  |  |  |  |  | significantly increased |  | 3 days |  | 15 min | 4.8 fold
